# Experiment: Shake-flask solubility with spectrophotometric measurement in aqueous DES mixtures
# Assay type: physicochemical
# Details: for Increase in the solubility compared to the neat DES: 25 °C
# Procedure: In order to determine the solubility of the three studied phenolic acids in deep eutectic solvents, a very well-established shake-flask method coupled with spectrophotometric measurements was utilized. The initial procedure involved the preparation of various DESs, which was conducted by mixing their HBA and HBD counterparts in a glass vessel and heating the composition until the formation of a transparent, uniform liquid. […] For additional measurements, the DESs were mixed with water in varying proportions, creating aqueous DES systems. Saturated solutions of CAF, SYR, and COU were obtained by adding excess amounts of these compounds to test tubes containing either a neat deep eutectic solvent or its aqueous solution. Such samples were placed in the Orbital Shaker Incubator ES-20/60 from Biosan (Riga, Latvia) and heated for 24 h at 25 °C, 30 °C, 35 °C, and 40 °C (±0.1 °C) with simultaneous mixing at 60 rpm. Before measurements, the samples were filtered using a PTFE syringe filter from Qpore (Dallas, TX, USA) with a 0.22 μm pore size. In order to avoid possible precipitation of the saturated solutions at decreased temperatures, the test tubes, syringes, pipette tips, and filters were kept at a temperature identical to that of the samples. The spectrophotometric measurements required the preparation of calibration curves for the three APIs. This involved the preparation of a stock solution of each compound in methanol, which was later successfully diluted, and the obtained solutions of varying concentrations were measured using an A360 spectrophotometer from AOE Instruments (Shanghai, China). The wavelength range was set to 200-500 nm, and the resolution was 1 nm. The analytical wavelengths were determined to be 324 nm for caffeic acid, 273 nm for syringic acid, and 308 nm for p-coumaric acid. The final regression equations, obtained after averaging three distinct sets of measurements, are collected in Table 2 together with determination coefficients and limits of detection (LOD) and quantification (LOQ) for the calibration curves. The measurements of the samples were conducted with the same spectrophotometer and identical settings. Methanol was used for the dilution of the samples so that they could remain within the linearity range of the method. Complete spectra of the samples were recorded, but for the solubility determination, the absorbance values at a specific analytical wavelength were considered. These values were combined with the corresponding regression equations of the calibration curves and served for the calculation of the concentration of the three phenolic acids in the studied samples. The densities of such samples were also measured, and for this task 1 mL of each sample was weighed to a precision of 0.1 mg using an AS 110 R2.PLUS analytical balance from […] (Radom, Poland). The obtained densities enabled the calculation of mole fractions of CAF, SYR, and COU dissolved in the studied DESs. For each considered system, three distinct measurements were conducted, and the results were averaged.
structure (smiles),measurement,setting,value
"COc1cc(C(=O)O)cc(OC)c1O [syringic acid, 4-hydroxy-3,5-dimethoxybenzoic acid]",Mole fraction solubility,"Bet – TEG 1:2 + water, x*DES 0.9, 30°C",0.0551±0.0005 mole fraction
same,Mole fraction solubility,"Bet – TEG 1:2 + water, x*DES 0.9, 35°C",0.0682±0.0014 mole fraction
same,Mole fraction solubility,"Bet – TEG 1:2 + water, x*DES 0.9, 40°C",0.0796±0.0008 mole fraction
same,Mole fraction solubility,"Bet – TEG 1:2, x*DES 1.0 (neat DES), 25°C",0.0474±0.0003 mole fraction
same,Mole fraction solubility,"Bet – TEG 1:2, x*DES 1.0 (neat DES), 30°C",0.0541±0.0004 mole fraction
same,Mole fraction solubility,"Bet – TEG 1:2, x*DES 1.0 (neat DES), 35°C",0.0657±0.0011 mole fraction
same,Mole fraction solubility,"Bet – TEG 1:2, x*DES 1.0 (neat DES), 40°C",0.0778±0.0009 mole fraction
same,Increase in the solubility compared to the neat DES,"Bet-TEG 1:2, x*DES = 0.9 (xwater = 0.1)",3%
same,Mole fraction solubility,"ChCl – TEG 1:2 + water, x*DES 0.1, 25°C",0.0069±0.0001 mole fraction
same,Mole fraction solubility,"ChCl – TEG 1:2 + water, x*DES 0.1, 30°C",0.0093±0.0001 mole fraction
same,Mole fraction solubility,"ChCl – TEG 1:2 + water, x*DES 0.1, 35°C",0.0131±0.0001 mole fraction
same,Mole fraction solubility,"ChCl – TEG 1:2 + water, x*DES 0.1, 40°C",0.0174±0.0002 mole fraction
same,Mole fraction solubility,"ChCl – TEG 1:2 + water, x*DES 0.2, 25°C",0.0122±0.0001 mole fraction
same,Mole fraction solubility,"ChCl – TEG 1:2 + water, x*DES 0.2, 30°C",0.0158±0.0001 mole fraction
same,Mole fraction solubility,"ChCl – TEG 1:2 + water, x*DES 0.2, 35°C",0.0218±0.0001 mole fraction
same,Mole fraction solubility,"ChCl – TEG 1:2 + water, x*DES 0.2, 40°C",0.0305±0.0002 mole fraction
same,Mole fraction solubility,"ChCl – TEG 1:2 + water, x*DES 0.3, 25°C",0.0186±0.0001 mole fraction
same,Mole fraction solubility,"ChCl – TEG 1:2 + water, x*DES 0.3, 30°C",0.0249±0.0001 mole fraction
same,Mole fraction solubility,"ChCl – TEG 1:2 + water, x*DES 0.3, 35°C",0.0347±0.0003 mole fraction
same,Mole fraction solubility,"ChCl – TEG 1:2 + water, x*DES 0.3, 40°C",0.0476±0.0003 mole fraction
same,Mole fraction solubility,"ChCl – TEG 1:2 + water, x*DES 0.4, 25°C",0.0254±0.0003 mole fraction
same,Mole fraction solubility,"ChCl – TEG 1:2 + water, x*DES 0.4, 30°C",0.0347±0.0004 mole fraction
same,Mole fraction solubility,"ChCl – TEG 1:2 + water, x*DES 0.4, 35°C",0.0466±0.0004 mole fraction
same,Mole fraction solubility,"ChCl – TEG 1:2 + water, x*DES 0.4, 40°C",0.0643±0.0006 mole fraction
same,Mole fraction solubility,"ChCl – TEG 1:2 + water, x*DES 0.5, 25°C",0.0324±0.0002 mole fraction
same,Mole fraction solubility,"ChCl – TEG 1:2 + water, x*DES 0.5, 30°C",0.0446±0.0004 mole fraction
same,Mole fraction solubility,"ChCl – TEG 1:2 + water, x*DES 0.5, 35°C",0.0618±0.0006 mole fraction
same,Mole fraction solubility,"ChCl – TEG 1:2 + water, x*DES 0.5, 40°C",0.0822±0.0010 mole fraction
same,Mole fraction solubility,"ChCl – TEG 1:2 + water, x*DES 0.6, 25°C",0.0401±0.0004 mole fraction
same,Mole fraction solubility,"ChCl – TEG 1:2 + water, x*DES 0.6, 30°C",0.0524±0.0005 mole fraction
same,Mole fraction solubility,"ChCl – TEG 1:2 + water, x*DES 0.6, 35°C",0.0731±0.0007 mole fraction
same,Mole fraction solubility,"ChCl – TEG 1:2 + water, x*DES 0.6, 40°C",0.0992±0.0012 mole fraction
same,Mole fraction solubility,"ChCl – TEG 1:2 + water, x*DES 0.7, 25°C",0.0475±0.0003 mole fraction
same,Mole fraction solubility,"ChCl – TEG 1:2 + water, x*DES 0.7, 30°C",0.0628±0.0004 mole fraction
same,Mole fraction solubility,"ChCl – TEG 1:2 + water, x*DES 0.7, 35°C",0.0871±0.0005 mole fraction
same,Mole fraction solubility,"ChCl – TEG 1:2 + water, x*DES 0.7, 40°C",0.1214±0.0012 mole fraction
same,Mole fraction solubility,"ChCl – TEG 1:2 + water, x*DES 0.8, 25°C",0.0541±0.0003 mole fraction
same,Mole fraction solubility,"ChCl – TEG 1:2 + water, x*DES 0.8, 30°C",0.0699±0.0006 mole fraction
same,Mole fraction solubility,"ChCl – TEG 1:2 + water, x*DES 0.8, 35°C",0.1009±0.0006 mole fraction
same,Mole fraction solubility,"ChCl – TEG 1:2 + water, x*DES 0.8, 40°C",0.1351±0.0013 mole fraction
same,Mole fraction solubility,"ChCl – TEG 1:2 + water, x*DES 0.9, 25°C",0.0550 mole fraction
same,Mole fraction solubility,"ChCl – TEG 1:2 + water, x*DES 0.9, 25°C, listed as syryngic acid",0.0550±0.0005 mole fraction
same,Mole fraction solubility,"ChCl – TEG 1:2 + water, x*DES 0.9, 30°C",0.0718±0.0005 mole fraction
same,Mole fraction solubility,"ChCl – TEG 1:2 + water, x*DES 0.9, 35°C",0.1018±0.0008 mole fraction
same,Mole fraction solubility,"ChCl – TEG 1:2 + water, x*DES 0.9, 40°C",0.1373±0.0011 mole fraction
same,Mole fraction solubility,"ChCl – TEG 1:2, x*DES 1.0 (neat DES), 25°C",0.0515±0.0004 mole fraction
same,Mole fraction solubility,"ChCl – TEG 1:2, x*DES 1.0 (neat DES), 30°C",0.0660±0.0003 mole fraction
same,Mole fraction solubility,"ChCl – TEG 1:2, x*DES 1.0 (neat DES), 35°C",0.0917±0.0006 mole fraction
same,Mole fraction solubility,"ChCl – TEG 1:2, x*DES 1.0 (neat DES), 40°C",0.1234±0.0013 mole fraction
same,Increase in the solubility compared to the neat DES,"ChCl-TEG 1:2, x*DES = 0.9 (xwater = 0.1)",7%
same,Solubility increase between 25 °C and 40 °C,neat DES (x*DES = 1.0) involving betaine (Bet-TEG 1:2),164%
same,Solubility increase between 25 °C and 40 °C,neat DES (x*DES = 1.0) with choline chloride (ChCl-TEG 1:2),240%

# Source: PMC12564265, “Navigating the Deep Eutectic Solvent Landscape: Experimental and Machine Learning Solubility Explorations of Syringic, p-Coumaric, and Caffeic Acids” (International Journal of Molecular Sciences, 2025)
